Like-named read-outs stand apart in the source and are kept apart here.
Columns and labels:
mouse P–gp (mP–gp) [1] = target: T1, mouse P–gp (mP–gp) (Mus musculus, UniProt P21447); assay: P–gp ATPase activity (vanadate-sensitive, end point Pi release) in native membranes; format: biochemical; conditions: for Emax: read-out: V1, maximum activation; for Effect on P–gp ATPase activity: native membranes, Figure 1
T1 construct: made in house; host or cells: High-Five insect cells (Invitrogen), recombinant baculovirus; total membrane vesicles
T1 sequence (P21447 whole entry): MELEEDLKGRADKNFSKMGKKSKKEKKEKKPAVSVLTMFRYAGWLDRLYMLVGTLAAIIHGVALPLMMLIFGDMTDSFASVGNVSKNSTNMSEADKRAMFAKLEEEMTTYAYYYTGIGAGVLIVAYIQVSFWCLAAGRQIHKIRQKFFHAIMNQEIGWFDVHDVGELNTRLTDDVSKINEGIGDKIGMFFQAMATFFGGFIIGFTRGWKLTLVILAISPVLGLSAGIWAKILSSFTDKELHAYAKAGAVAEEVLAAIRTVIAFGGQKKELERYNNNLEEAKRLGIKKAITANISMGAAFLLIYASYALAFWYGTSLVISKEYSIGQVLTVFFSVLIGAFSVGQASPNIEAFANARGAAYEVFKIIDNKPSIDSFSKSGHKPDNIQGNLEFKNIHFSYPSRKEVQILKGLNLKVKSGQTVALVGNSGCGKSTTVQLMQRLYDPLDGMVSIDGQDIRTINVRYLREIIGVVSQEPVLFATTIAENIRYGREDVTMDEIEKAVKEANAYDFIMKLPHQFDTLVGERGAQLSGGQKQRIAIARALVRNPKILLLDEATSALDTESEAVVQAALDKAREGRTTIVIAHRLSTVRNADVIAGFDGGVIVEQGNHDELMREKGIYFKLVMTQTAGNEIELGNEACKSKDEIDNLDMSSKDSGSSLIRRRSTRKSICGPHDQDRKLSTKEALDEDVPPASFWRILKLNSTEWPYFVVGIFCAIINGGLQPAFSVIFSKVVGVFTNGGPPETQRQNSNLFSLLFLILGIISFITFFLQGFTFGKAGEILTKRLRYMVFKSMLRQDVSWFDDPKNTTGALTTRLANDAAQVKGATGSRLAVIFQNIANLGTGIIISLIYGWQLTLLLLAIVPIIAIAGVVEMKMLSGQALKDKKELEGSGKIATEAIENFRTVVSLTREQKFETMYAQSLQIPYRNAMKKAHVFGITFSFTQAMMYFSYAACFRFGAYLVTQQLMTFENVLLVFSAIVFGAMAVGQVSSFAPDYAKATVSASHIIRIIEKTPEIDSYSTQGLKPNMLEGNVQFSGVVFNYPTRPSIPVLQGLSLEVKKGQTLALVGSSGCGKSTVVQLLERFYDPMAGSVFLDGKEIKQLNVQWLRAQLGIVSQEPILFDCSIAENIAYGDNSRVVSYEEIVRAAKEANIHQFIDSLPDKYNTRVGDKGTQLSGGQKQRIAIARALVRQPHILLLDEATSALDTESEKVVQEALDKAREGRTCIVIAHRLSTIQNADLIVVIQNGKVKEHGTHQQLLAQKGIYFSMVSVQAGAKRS
Protocol: High-Five insect cells (Invitrogen) were infected with recombinant baculovirus carrying mouse P–gp (mP–gp) gene (Abcb1a). Membrane vesicles were prepared by hypotonic lysis of the insect cells, followed by ultracentrifugation to collect the membrane vesicles, as described in detail in reference. The native membranes obtained were suspended in storage buffer (45 mM Tris-HCl pH 7.5, 45 mM D-mannitol, 1.8 mM EGTA, 0.45% v/v aprotinin, 1.8 mM DTT, 0.9 mM AEBSF, and 10% v/v glycerol), aliquoted, and stored at −80 °C or in liquid nitrogen until use. The concentration of protein in the native membranes was quantified by the Sherman and Weismann method using Amido Black B dye.
The ATPase activity of P–gp in the High-Five insect cell membranes was measured by the end point Pi release assays, as described earlier with minor modifications. Native membranes were diluted in ATPase assay buffer (final concentrations: 41.2 mM Tris-MES pH = 6.8, 50 mM KCl, 5 mM NaN3, 2 mM EGTA, 1.03 mM Ouabain, 2 mM DTT, and 10 mM MgCl2), and the modulators were added from stocks in DMSO (final DMSO 1% v/v). The final concentration of protein was quantified, being ca. 0.1 mg/mL. Four samples were prepared at each modulator concentration, containing ATP at 5 mM, two of which also contained vanadate at 0.3 mM. P–gp specific activity was measured as vanadate-sensitive ATPase activity. The basal rate of ATP hydrolysis was 67 ± 4 nmol Pi mgP^−1 min^−1, with 37 ± 4 nmol Pi mgP^−1 min^−1 being sensitive to vanadate. The results obtained for the effect of the modulators on the ATPase activity in the presence and absence of vanadate are shown in the Supplementary Information (Figure S1).
The results were then analyzed with the formalism derived in this manuscript considering the distribution of the modulator in the distinct environments (aqueous phase, lipid bilayer and P-gp) and several equal and independent binding sites in P-gp’s binding pocket, Equations (3)–(9). The best fit was obtained with nonlinear least-square analysis using Microsoft Excel.
For the correct analysis of the results, the distribution of the amphiphiles in the distinct environments (aqueous media, lipid bilayer, and P–gp) must be considered. In addition, excess ligand should not be assumed. When considering that P–gp has several binding sites, the kinetic scheme that describes P–gp saturation with ligand is given by Equation (5). For details, see, e.g., references. (5) LW↔KPW→LbLLb LLb=KPW→LbLW VLb/VWLW+P↔β1PL1 PL1=β1PLWi LW+P↔βiPLi PLi=βiPLW^i n LW+P↔βnPLn PLn=βnPLW^n
The overall ATPase activity at each ligand concentration is calculated from the concentration of each protein species PLi and the corresponding ATPase activity Vi , (9) V=V0+∑i=1nPLi Vi
This formalism was used to describe the effect of the NBD amphiphiles on P–gp’s ATPase activity, considering a distinct ATPase activity for P–gp with a different number of amphiphile molecules in the binding pocket.

mouse P–gp (mP–gp) [2] = target: T1, mouse P–gp (mP–gp); assay: as above; format: biochemical; conditions: Equation (S1), total modulator concentration; only activation for NBD–C4; constraint K1≤K2 for NBD–C8 and NBD–LysoMPE; [75% confidence interval]; read-out: K1, dissociation constant for P–gp activation
[3] = Equation (9), local concentrations, n = 1 binding sites, read-out: Kd, microscopic dissociation constant
[4] = Equation (9), local concentrations, n = 2 binding sites, read-out: Kd, microscopic dissociation constant
[5] = Equation (9), local concentrations, n = 3 binding sites, read-out: Kd, microscopic dissociation constant
[6] = Equation (9), local concentrations, n = 4 binding sites, read-out: Kd, microscopic dissociation constant
[7] = Equation (9), local concentrations, n = 5 binding sites, read-out: Kd, microscopic dissociation constant
[8] = Equation (9), n = 3, read-out: β1, macroscopic binding constant of the first ligand (converted)
[9] = Equation (9), n = 4, read-out: β1, macroscopic binding constant of the first ligand (converted)
[10] = Equation (9), n = 5, read-out: β1, macroscopic binding constant of the first ligand (converted)
[11] = Equation (S1), total modulator concentration, constraint K1≤K2 for NBD–C8 and NBD–LysoMPE, [75% confidence interval], read-out: K2, dissociation constant for P–gp inhibition
[12] = Equation (S1), only activation for NBD–C4, constraint K1≤K2 for NBD–C8 and NBD–LysoMPE, [75% confidence interval]
[13] = Equation (S1), total modulator concentration, no constraint between K1 and K2, [75% confidence interval], read-out: K1, dissociation constant for P–gp activation
[14] = Equation (S1), total modulator concentration, no constraint between K1 and K2, [75% confidence interval], read-out: K2, dissociation constant for P–gp inhibition
[15] = Equation (S1), constraint K1≤K2 for NBD–C8
[16] = Equation (S1), no constraint between K1 and K2, [75% confidence interval], listed as NBD-C8
[17] = Equation (S1), no constraint between K1 and K2, [75% confidence interval]

| Structure (SMILES) | Kd (mouse P–gp (mP–gp) [1]; [3]) [µM] | Kd (mouse P–gp (mP–gp) [1]; [4]) [µM] | Kd (mouse P–gp (mP–gp) [1]; [5]) [µM] | Kd (mouse P–gp (mP–gp) [1]; [6]) [µM] | Kd (mouse P–gp (mP–gp) [1]; [7]) [µM] | V1, ATPase activity of P–gp with 1 amphiphile bound (mouse P–gp (mP–gp) [1]; Equation (9), n = 1) [%] | V1, ATPase activity of P–gp with 1 amphiphile bound (mouse P–gp (mP–gp) [1]; Equation (9), n = 2) [%] | V2, ATPase activity of P–gp with 2 amphiphiles bound (mouse P–gp (mP–gp) [1]; Equation (9), n = 2) [%] | V1, ATPase activity of P–gp with 1 amphiphile bound (mouse P–gp (mP–gp) [1]; Equation (9), n = 3) [%] | V2, ATPase activity of P–gp with 2 amphiphiles bound (mouse P–gp (mP–gp) [1]; Equation (9), n = 3) [%] | V3, ATPase activity of P–gp with 3 amphiphiles bound (mouse P–gp (mP–gp) [1]; Equation (9), n = 3) [%] | Kd (mouse P–gp (mP–gp) [1]; [8]) [µM] | V1, ATPase activity of P–gp with 1 amphiphile bound (mouse P–gp (mP–gp) [1]; Equation (9), n = 4) [%] | V2, ATPase activity of P–gp with 2 amphiphiles bound (mouse P–gp (mP–gp) [1]; Equation (9), n = 4) [%] | V3, ATPase activity of P–gp with 3 amphiphiles bound (mouse P–gp (mP–gp) [1]; Equation (9), n = 4) [%] | V4, ATPase activity of P–gp with 4 amphiphiles bound (mouse P–gp (mP–gp) [1]; Equation (9), n = 4) [%] | Kd (mouse P–gp (mP–gp) [1]; [9]) [µM] | V1, ATPase activity of P–gp with 1 amphiphile bound (mouse P–gp (mP–gp) [1]; Equation (9), n = 5) [%] | V2, ATPase activity of P–gp with 2 amphiphiles bound (mouse P–gp (mP–gp) [1]; Equation (9), n = 5) [%] | V3, ATPase activity of P–gp with 3 amphiphiles bound (mouse P–gp (mP–gp) [1]; Equation (9), n = 5) [%] | other results |
| --- | --- | --- | --- | --- | --- | --- | --- | --- | --- | --- | --- | --- | --- | --- | --- | --- | --- | --- | --- | --- | --- |
| CCCCNc1ccc([N+](=O)[O-])c2nonc12 [NBD–C4] | 75 | 18 | 11 | 7 | 9 | 703 | 100 | 535 | 109 | 109 | 512 | 3.57 | 110 | 110 | 110 | 501 | 1.85 | 110 | 110 | 110 | V4, ATPase activity of P–gp with 4 amphiphiles bound (mouse P–gp (mP–gp) [1]; Equation (9), n = 5): 259%; V5, ATPase activity of P–gp with 5 amphiphiles bound (mouse P–gp (mP–gp) [1]; Equation (9), n = 5): 491%; Kd (mouse P–gp (mP–gp) [1]; [10]): 1.82 µM; K2, dissociation constant for P–gp inhibition (mouse P–gp (mP–gp) [1]; Equation (S1), total modulator concentration, constraint K1≤K2 for NBD–C8 and NBD–LysoMPE, [75% confidence interval]): outside the concentration range studied; Kd (mouse P–gp (mP–gp) [1]; [11]): > 60 µM; Emax (mouse P–gp (mP–gp) [1]; [12]): 734%; Effect on P–gp ATPase activity (mouse P–gp (mP–gp) [1]): activation; Kd (mouse P–gp (mP–gp) [2]): 84 µM |
| CCCCCCCCNc1ccc([N+](=O)[O-])c2nonc12 [NBD–C8] | 3 | 11 | 4 | 4 | 6 | 286 | 388 | 0 | 112 | 403 | 65 | 1.28 | 113 | 260 | 317 | 62 | 1 | 122 | 275 | 253 | Kd (mouse P–gp (mP–gp) [1]; Equation (9), n = 2, read-out: β1, macroscopic binding constant of the first ligand (converted)): 5.26 µM; V4, ATPase activity of P–gp with 4 amphiphiles bound (mouse P–gp (mP–gp) [1]; Equation (9), n = 5): 253%; V5, ATPase activity of P–gp with 5 amphiphiles bound (mouse P–gp (mP–gp) [1]; Equation (9), n = 5): 0%; Kd (mouse P–gp (mP–gp) [1]; [10]): 1.16 µM; Kd (mouse P–gp (mP–gp) [1]; [11]): 29 µM; Kd (mouse P–gp (mP–gp) [1]; [13]): 17 µM; Kd (mouse P–gp (mP–gp) [1]; [14]): 29 µM; V2, residual activity at infinite modulator concentration (mouse P–gp (mP–gp) [1]; [15]): 0%; V1, maximum activation (mouse P–gp (mP–gp) [1]; [16]): 494 [380, 3000] %; V2, residual activity at infinite modulator concentration (mouse P–gp (mP–gp) [1]; [16]): 0 [0, 103] %; V2, residual activity at infinite modulator concentration (mouse P–gp (mP–gp) [1]; Equation (S1), no constraint between K1 and K2, [75% confidence interval], listed as NBD‐C8): 0%; Emax (mouse P–gp (mP–gp) [1]; [17]): 497%; V1, maximum activation (mouse P–gp (mP–gp) [1]; [12]): 494 % of the basal ATPase activity; V1, maximum activation (mouse P–gp (mP–gp) [1]; Equation (S1), only activation for NBD–C4, constraint K1≤K2 for NBD–C8 and NBD–LysoMPE, [75% confidence interval], listed as NBD-C8): 494 [380, 598] % of the basal ATPase activity; Emax (mouse P–gp (mP–gp) [1]; [12]): 497%; Effect on P–gp ATPase activity (mouse P–gp (mP–gp) [1]): both activation and inhibition; Kd (mouse P–gp (mP–gp) [2]): 17 µM |
| CCCCCCCCCCCCCC(=O)OCC(O)COP(=O)(O)OCCNc1ccc([N+](=O)[O-])c2nonc12 (stereo not shown) [NBD–LysoMPE] | 20 | 6 | 3 | 3 | 3 | 0 | 122 | 0 | 99 | 146 | 0 | 1.09 | 100 | 100 | 129 | 0 | 0.714 | 100 | 100 | 116 | V4, ATPase activity of P–gp with 4 amphiphiles bound (mouse P–gp (mP–gp) [1]; Equation (9), n = 5): 97%; V5, ATPase activity of P–gp with 5 amphiphiles bound (mouse P–gp (mP–gp) [1]; Equation (9), n = 5): 0%; Kd (mouse P–gp (mP–gp) [1]; [10]): 0.588 µM; Kd (mouse P–gp (mP–gp) [1]; [13]): > 5 µM; Kd (mouse P–gp (mP–gp) [1]; [14]): ≤ 15 µM; V2, residual activity at infinite modulator concentration (mouse P–gp (mP–gp) [1]; [15]): 0%; V1, maximal ATPase activation (mouse P–gp (mP–gp) [1]; Equation (S1), in any case (with or without constraints on K1, K2)): < 126%; V2, residual activity at infinite modulator concentration (mouse P–gp (mP–gp) [1]; [17]): 0%; Emax (mouse P–gp (mP–gp) [1]; [17]): 102%; Emax (mouse P–gp (mP–gp) [1]; [12]): 106%; Effect on P–gp ATPase activity (mouse P–gp (mP–gp) [1]): mostly inhibition; Kd (mouse P–gp (mP–gp) [2]): 13 µM |
